Earlier results, collected in patent publication US20070207193A1, “Novel application of topical anesthetics for modulation of neurogenic tremor” (priority 2006, published 2007).

How the values were obtained:
Parkinsonian tremor = details: ten patients undergoing stereotactic thalamotomy
subthalamic nucleus = details: applied centrally in the subcortical areas of the brain

CCN(CC)CC(=O)Nc1c(C)cccc1C [lidocaine]
cases in which microinjection replicated the effects of microstimulation (Parkinsonian tremor): ⅔ | effect on tremor (subthalamic nucleus): ameliorated tremor
